In one test the test system is serotonin-2 receptor. Nature of the test: Anti-serotonin (5-HT) action: contraction of isolated superior mesenteric artery induced by 10^−5 M 5-HT. To be noted: contraction by 10^−5 M 5-HT taken as 100%, guinea pig superior mesenteric artery. The method, then: (1) Anti-Serotonin (5-HT) Action
A preparation cut in a helical form was suspended under resting tension of 0.3 g in a Magnus cylinder filled with the Tyrode solution which had been aerated with a gas mixture of 95% O2 and 5% CO2 and maintained at 37° C. Using an isometric transducer (“UL-10”, manufactured by SHINKOH K.K.) and a pressure preamplifier (“DSA-605A”, manufactured by SHINKOH K.K.), variations in tension were measured. The isometric tensions were recorded on a pen-writing recorder (“VP-6537A”, manufactured by NATIONAL K.K.). Taking the contraction induced by 10^−5 M serotonin (5-HT) as 100%, the percent contractions by 10^−5 M 5-HT in the presence of each test drug at 10^−8 M, 10^−7 M and 10^−6 M were determined as anti-5-HT action.

The next test concerns α1 receptors. Nature of the test: Anti-α1 action: tonic contraction of isolated thoracic aorta induced by 10^−5 M norepinephrine. To be noted: tonic contraction by 10^−5 M norepinephrine taken as 100%, guinea pig thoracic aorta. The method, then:
The thoracic aorta of each Hartley male guinea pig (body weight: 300-500 g) was excised. A preparation cut in a helical form was suspended under 1 g load in a Magnus cylinder filled with the Tyrode solution which had been aerated with a gas mixture of 95% O2 and 5% CO2 and maintained at 37° C. Using an isometric transducer (“TB-612J”, manufactured by Nihon Kohden Corporation) and a pressure preamplifier (“AP-620G”, manufactured by Nihon Kohden Corporation), variations in tension were measured. The isometric tensions were recorded on a thermal pen-writing recorder (“WT-647G”, manufactured by Nihon Kohden Corporation). Taking the tonic contraction induced by 10^−5 M norepinephrine (NE) as 100%, the percent contractions upon addition of each test drug at 10^−8 M and 10^−7 M were determined as α1 action.

On to `Cn1ccc2c1C(=O)CCN(CCCN1CCC(c3noc4cc(F)ccc34)CC1)C2=O` [Compound No. 50, 5-[3-[4-(6-fluoro-1,2-benzisoxazol-3-yl)piperidino]propyl]-1-methyl-1,4,5,6,7,8-hexahydropyrrolo[3,2-c]azepine-4,8-dione], for which the “Anti 5-HT action (% of Control)” value in the test on serotonin-2 receptor (test drug 10^−7 M) is 25.1 % of Control; in the test on serotonin-2 receptor (test drug 10^−8 M), 67.5 % of Control. Also, the “Anti α1 action (% of Control)” value with α1 receptors (test drug 10^−7 M) was 34.2 % of Control; with α1 receptors (test drug 10^−8 M), 67.1 % of Control.

Take `Cn1ccc2c1C1(CCN(CCCN3CCN(c4ccc(F)cc4)CC3)C2=O)SCCS1` [Compound No. 52, 5-[3-[4-(4-fluorophenyl)piperazin-1-yl]propyl]-1-methyl-1,4,5,6,7,8-hexahydropyrrolo-[3,2-c]azepin-4-one-8-spiro-2′-(1′,3′-dithiolane)]: the “Anti 5-HT action (% of Control)” value in the test with serotonin-2 receptor (test drug 10^−7 M) is given as 20.9 % of Control; in the test with serotonin-2 receptor (test drug 10^−8 M) it was 75.5 % of Control. Also, the “Anti α1 action (% of Control)” value in the test with α1 receptors (test drug 10^−7 M) is reported as 75.8 % of Control; with α1 receptors (test drug 10^−8 M) it was 96.8 % of Control.

Consider `Cn1ccc2c1C(=NO)CCN(CCCN1CCN(c3ccc(F)cc3)CC1)C2=O` [Compound No. 53, 5-[3-[4-(4-fluorophenyl)piperazin-1-yl]propyl]-8-hydroxyimino-1-methyl-1,4,5,6,7,8-hexahydropyrrolo[3,2-c]azepin-4-one], for which the entries for the “Anti 5-HT action (% of Control)” value in the test with serotonin-2 receptor (test drug 10^−6 M) and in the test on serotonin-2 receptor (test drug 10^−7 M) were 48.2 % of Control and 87.1 % of Control, respectively. Besides, the results for the “Anti α1 action (% of Control)” value in the test on α1 receptors (test drug 10^−7 M) and in the test on α1 receptors (test drug 10^−8 M) were 60.1 % of Control and 86.1 % of Control, respectively.

Regarding `Cn1cc2c(c1)/C(=N\O)CCN(CCCN1CCN(c3ccc(F)cc3)CC1)C2=O` [Compound No. 55, 5-[3-[4-(4-fluorophenyl)piperazin-1-yl]propyl]-8-[(Z)-hydroxyimino]-2-methyl-2,4,5,6,7,8-hexahydropyrrolo[3,4-c]azepin-4-one], the “Anti 5-HT action (% of Control)” value is on record as 11.0 % of Control in the test with serotonin-2 receptor (test drug 10^−6 M) and 59.5 % of Control with serotonin-2 receptor (test drug 10^−7 M). For the same compound, the “Anti α1 action (% of Control)” value in the test with α1 receptors (test drug 10^−7 M) is given as 73.5 % of Control; in the test with α1 receptors (test drug 10^−8 M), 97.6 % of Control.

With `Cn1ccc2c1C(O)CCN(CCN1CCN(c3ccc(F)cc3)CC1)C2=O` (stereo not drawn) [Compound No. 56, 5-[2-[4-(4-fluorophenyl)piperazin-1-yl]ethyl]-8-hydroxy-1-methyl-1,4,5,6,7,8-hexahydropyrrolo[3,2-c]azepin-4-one], the “Anti 5-HT action (% of Control)” value in the test on serotonin-2 receptor (test drug 10^−6 M) is 47.9 % of Control; in the test with serotonin-2 receptor (test drug 10^−7 M), 90.2 % of Control. Further, the “Anti α1 action (% of Control)” value with α1 receptors (test drug 10^−7 M) is listed as 71.4 % of Control; in the test on α1 receptors (test drug 10^−8 M), 96.7 % of Control.

Consider `Cn1ccc2c1C(O)CCN(CCCN1CCN(c3ccc(F)cc3)CC1)C2=O` (stereo not drawn) [Compound No. 57, 5-[3-[4-(4-fluorophenyl)piperazin-1-yl]propyl]-8-hydroxy-1-methyl-1,4,5,6,7,8-hexahydropyrrolo[3,2-c]azepin-4-one], for which the “Anti 5-HT action (% of Control)” value in the test with serotonin-2 receptor (test drug 10^−6 M) is recorded as 7.5 % of Control; in the test on serotonin-2 receptor (test drug 10^−7 M), 12.0 % of Control; in the test with serotonin-2 receptor (test drug 10^−8 M), 54.6 % of Control. Besides, the “Anti α1 action (% of Control)” value with α1 receptors (test drug 10^−7 M) is 91.4 % of Control; in the test with α1 receptors (test drug 10^−8 M), 100 % of Control.

`Cc1cn(C)c2c1C(=O)N(CCCN1CCN(c3ccc(F)cc3)CC1)CCC2O` (stereo not drawn) [Compound No. 59, 5-[3-[4-(4-fluorophenyl)piperazin-1-yl]propyl]-8-hydroxy-1,3-dimethyl-1,4,5,6,7,8-hexahydropyrrolo[3,2-c]azepin-4-one]: the “Anti 5-HT action (% of Control)” value with serotonin-2 receptor (test drug 10^−7 M) is 12.5 % of Control; with serotonin-2 receptor (test drug 10^−8 M), 48.5 % of Control. Besides, the figures for the “Anti α1 action (% of Control)” value with α1 receptors (test drug 10^−7 M) and in the test with α1 receptors (test drug 10^−8 M) were 47.3 % of Control and 81.6 % of Control, respectively.

Take `O=C1c2ccn(-c3ccccc3)c2C(O)CCN1CCCN1CCN(c2ccc(F)cc2)CC1` (stereo not drawn) [Compound No. 61, 5-[3-[4-(4-fluorophenyl)piperazin-1-yl]propyl]-8-hydroxy-1-phenyl-1,4,5,6,7,8-hexahydropyrrolo[3,2-c]azepin-4-one]: the “Anti 5-HT action (% of Control)” value with serotonin-2 receptor (test drug 10^−6 M) is 37.3 % of Control; in the test with serotonin-2 receptor (test drug 10^−7 M) it was 74.3 % of Control. Moreover, the “Anti α1 action (% of Control)” value with α1 receptors (test drug 10^−7 M) is on record as 39.4 % of Control; with α1 receptors (test drug 10^−8 M), 96.1 % of Control.

As to `O=C1c2ccn(Cc3ccccc3)c2C(O)CCN1CCCN1CCN(c2ccc(F)cc2)CC1` (stereo not drawn) [Compound No. 62, 1-benzyl-5-[3-[4-(4-fluorophenyl)piperazin-1-yl]propyl]-8-hydroxy-1,4,5,6,7,8-hexahydropyrrolo[3,2-c]azepin-4-one], the “Anti 5-HT action (% of Control)” value in the test with serotonin-2 receptor (test drug 10^−6 M) was 11.1 % of Control; in the test on serotonin-2 receptor (test drug 10^−7 M) it was 50.6 % of Control. Besides, the “Anti α1 action (% of Control)” value is 31.7 % of Control in the test with α1 receptors (test drug 10^−7 M) and 95.0 % of Control in the test with α1 receptors (test drug 10^−8 M).

Regarding `Cn1ccc2c1C(O)CCN(CCCN1CCC(c3ccccc3)CC1)C2=O` (stereo not drawn) [Compound No. 73, 8-hydroxy-1-methyl-5-[3-(4-phenylpiperidino)propyl]-1,4,5,6,7,8-hexahydropyrrolo-[3,2-c]azepin-4-one], the “Anti 5-HT action (% of Control)” value in the test on serotonin-2 receptor (test drug 10^−6 M) was 14.9 % of Control; in the test with serotonin-2 receptor (test drug 10^−7 M), 54.7 % of Control; in the test on serotonin-2 receptor (test drug 10^−8 M), 90.7 % of Control. For the same compound, the “Anti α1 action (% of Control)” value in the test on α1 receptors (test drug 10^−7 M) is on record as 94.0 % of Control; in the test with α1 receptors (test drug 10^−8 M), 99.3 % of Control.

In the case of `Cn1ccc2c1C(O)CCN(CCCN1CCC(C(=O)c3ccc(F)cc3)CC1)C2=O` (stereo not drawn) [Compound No. 75, 5-[3-[4-(4-fluorobenzoyl)piperidino]-propyl]-8-hydroxy-1-methyl-1,4,5,6,7,8-hexahydropyrrolo[3,2-c]azepin-4-one], the entries for the “Anti 5-HT action (% of Control)” value in the test with serotonin-2 receptor (test drug 10^−6 M) and in the test on serotonin-2 receptor (test drug 10^−7 M) were 25.2 % of Control and 71.7 % of Control, respectively. Besides, the “Anti α1 action (% of Control)” value is on record as 70.3 % of Control in the test with α1 receptors (test drug 10^−7 M) and 98.3 % of Control with α1 receptors (test drug 10^−8 M).

As to `COC1CCN(CCCN2CCN(c3ccc(Cl)cc3)CC2)C(=O)c2ccn(C)c21` (stereo not drawn) [Compound No. 76, 5-[3-[4-(4-chlorophenyl)piperazin-1-yl]propyl]-8-methoxy-1-methyl-1,4,5,6,7,8-hexahydropyrrolo[3,2-c]azepin-4-one], the “Anti 5-HT action (% of Control)” value in the test on serotonin-2 receptor (test drug 10^−6 M) is given as 7.2 % of Control; in the test on serotonin-2 receptor (test drug 10^−7 M) it was 35.5 % of Control. Further, the “Anti α1 action (% of Control)” value in the test on α1 receptors (test drug 10^−7 M) is given as 88.1 % of Control; in the test on α1 receptors (test drug 10^−8 M), 98.9 % of Control.

Consider `Cn1ccc2c1C=CCN(CCCN1CCN(c3ccc(Cl)cc3)CC1)C2=O` [Compound No. 79, 5-[3-[4-(4-chlorophenyl)piperazin-1-yl]propyl]-1-methyl-1,4,5,6-tetrahydropyrrolo[3,2-c]azepin-4-one], for which the “Anti 5-HT action (% of Control)” value in the test with serotonin-2 receptor (test drug 10^−7 M) was 31.8 % of Control; in the test on serotonin-2 receptor (test drug 10^−8 M) it was 78.3 % of Control. The “Anti α1 action (% of Control)” value is on record as 58.1 % of Control in the test on α1 receptors (test drug 10^−7 M) and 94.8 % of Control with α1 receptors (test drug 10^−8 M).

Regarding `Cn1ccc2c1CCCN(CCCN1CCN(c3ccc(F)cc3)CC1)C2=O` [Compound No. 82, 5-[3-[4-(4-fluorophenyl)piperazin-1-yl]propyl]-1-methyl-1,4,5,6,7,8-hexahydropyrrolo-[3,2-c]azepin-4-one], the “Anti 5-HT action (% of Control)” value in the test on serotonin-2 receptor (test drug 10^−7 M) is 8.4 % of Control; with serotonin-2 receptor (test drug 10^−8 M) it was 35.2 % of Control. Moreover, the figures for the “Anti α1 action (% of Control)” value in the test with α1 receptors (test drug 10^−7 M) and with α1 receptors (test drug 10^−8 M) were 37.6 % of Control and 87.6 % of Control, respectively.

Take `Cn1ccc2c1[C@H](O)CCN(CCCN1CCN(c3ccc(F)cc3)CC1)C2=O` [Compound No. 84]: the “Anti 5-HT action (% of Control)” value in the test with serotonin-2 receptor (test drug 10^−6 M) was 11.9 % of Control; with serotonin-2 receptor (test drug 10^−7 M) it was 61.9 % of Control; in the test on serotonin-2 receptor (test drug 10^−8 M) it was 82.0 % of Control. The entries for the “Anti α1 action (% of Control)” value in the test with α1 receptors (test drug 10^−7 M) and in the test with α1 receptors (test drug 10^−8 M) were 92.4 % of Control and 100 % of Control, respectively.

The values above are taken from patent US6713634B2, “Pyrroloazepine derivatives” (Daiichi Suntory Pharma Co., Ltd., priority 1995, dated 2004).
